# Experimental data from ChEMBL document CHEMBL1201862, “PubChem BioAssay data set” (2004).
#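 Cultured in 96-well plates, cells were exposed to test compound for 48 hours across five concentrations. Abbreviation: GI50, concentration required for 50% inhibition of growth.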 The source made the active and inactive calls. No stated cut-off is given here; in the data, active = GI50 up to about 1.1 µM and inactive = higher.
# Columns and labels:
# Assay in all cases: growth of human tumour cells (NCI), 48 h
# 786-0 = system: 786-0
# A498 = system: A498
# A549 = system: A549
# ACHN = system: ACHN
# BT-549 = system: BT-549
# CAKI-1 = system: CAKI-1
# COLO 205 = system: COLO 205
# DU-145 = system: DU-145
# EKVX = system: EKVX
# HCC 2998 = system: HCC 2998
# HCT-116 = system: HCT-116
# HCT-15 = system: HCT-15
# HOP-62 = system: HOP-62
# HOP-92 = system: HOP-92
# HT-29 = system: HT-29
# Hs-578T = system: Hs-578T
# IGROV-1 = system: IGROV-1
# K562 = system: K562
# KM12 = system: KM12
# M14 = system: M14
# MCF7 = system: MCF7
# MDA-MB-231 = system: MDA-MB-231
# MDA-MB-435 = system: MDA-MB-435
# MDA-N = system: MDA-N
# MOLT-4 = system: MOLT-4
# Malme-3M = system: Malme-3M
# NCI-H23 = system: NCI-H23
# NCI-H460 = system: NCI-H460
# NCI-H522 = system: NCI-H522
# NCI/ADR-RES = system: NCI/ADR-RES
# OVCAR-3 = system: OVCAR-3
# OVCAR-4 = system: OVCAR-4
# OVCAR-5 = system: OVCAR-5
# OVCAR-8 = system: OVCAR-8
# PC-3 = system: PC-3
# RPMI-8226 = system: RPMI-8226
# RXF 393 = system: RXF 393
# SF-268 = system: SF-268
# SF-295 = system: SF-295
# SK-MEL-28 = system: SK-MEL-28
# SK-MEL-2 = system: SK-MEL-2
# SK-MEL-5 = system: SK-MEL-5
# SK-OV-3 = system: SK-OV-3
# SNB-19 = system: SNB-19
# SNB-75 = system: SNB-75
# SW-620 = system: SW-620
# T47D = system: T47D
# TK-10 = system: TK-10
# U-251 = system: U-251
# UACC-257 = system: UACC-257
# UACC-62 = system: UACC-62
# UO-31 = system: UO-31
# CCRF-CEM = system: CCRF-CEM
# HL-60 = system: HL-60
# LOX IMVI = system: LOX IMVI
# SF-539 = system: SF-539
# SN12C = system: SN12C
# NCI-H226 = system: NCI-H226
structure (smiles),measurement,setting,value
CC(C)(C)OC(=O)NCCC1CNc2ccccc21 (stereo not drawn),GI50,786-0,> 100 µM (inactive)
same,GI50,A498,> 100 µM (inactive)
same,GI50,A549,> 100 µM (inactive)
same,GI50,ACHN,> 100 µM (inactive)
same,GI50,BT-549,> 100 µM (inactive)
same,GI50,CAKI-1,> 100 µM (inactive)
same,GI50,COLO 205,> 100 µM (inactive)
same,GI50,DU-145,> 100 µM (inactive)
same,GI50,EKVX,> 100 µM (inactive)
same,GI50,HCC 2998,> 100 µM (inactive)
same,GI50,HCT-116,> 100 µM (inactive)
same,GI50,HCT-15,> 100 µM
same,GI50,HOP-62,> 100 µM (inactive)
same,GI50,HOP-92,93.1 µM (inactive)
same,GI50,HT-29,> 100 µM (inactive)
same,GI50,Hs-578T,> 100 µM (inactive)
same,GI50,IGROV-1,> 100 µM (inactive)
same,GI50,K562,> 100 µM (inactive)
same,GI50,KM12,> 100 µM (inactive)
same,GI50,M14,> 100 µM (inactive)
same,GI50,MCF7,> 100 µM (inactive)
same,GI50,MDA-MB-231,> 100 µM (inactive)
same,GI50,MDA-MB-435,> 100 µM (inactive)
same,GI50,MDA-N,> 100 µM (inactive)
same,GI50,MOLT-4,> 100 µM (inactive)
same,GI50,Malme-3M,> 100 µM (inactive)
same,GI50,NCI-H23,> 100 µM (inactive)
same,GI50,NCI-H460,> 100 µM (inactive)
same,GI50,NCI-H522,> 100 µM (inactive)
same,GI50,NCI/ADR-RES,> 100 µM (inactive)
same,GI50,OVCAR-3,> 100 µM (inactive)
same,GI50,OVCAR-4,> 100 µM (inactive)
same,GI50,OVCAR-5,> 100 µM (inactive)
same,GI50,OVCAR-8,> 100 µM (inactive)
same,GI50,PC-3,> 100 µM (inactive)
same,GI50,RPMI-8226,> 100 µM (inactive)
same,GI50,RXF 393,> 100 µM (inactive)
same,GI50,SF-268,> 100 µM (inactive)
same,GI50,SF-295,> 100 µM (inactive)
same,GI50,SK-MEL-28,> 100 µM (inactive)
same,GI50,SK-MEL-2,> 100 µM (inactive)
same,GI50,SK-MEL-5,> 100 µM (inactive)
same,GI50,SK-OV-3,> 100 µM (inactive)
same,GI50,SNB-19,> 100 µM (inactive)
same,GI50,SNB-75,> 100 µM (inactive)
same,GI50,SW-620,> 100 µM (inactive)
same,GI50,T47D,> 100 µM (inactive)
same,GI50,TK-10,> 100 µM (inactive)
same,GI50,U-251,> 100 µM (inactive)
same,GI50,UACC-257,> 100 µM (inactive)
same,GI50,UACC-62,> 100 µM (inactive)
same,GI50,UO-31,> 100 µM (inactive)
COC(=O)c1cn(CC(O)CCl)nn1 (stereo not drawn),GI50,A498,> 100 µM (inactive)
same,GI50,A549,> 100 µM (inactive)
same,GI50,ACHN,> 100 µM (inactive)
same,GI50,BT-549,> 100 µM (inactive)
same,GI50,CAKI-1,> 100 µM (inactive)
same,GI50,CCRF-CEM,> 100 µM (inactive)
same,GI50,COLO 205,> 100 µM (inactive)
same,GI50,DU-145,> 100 µM (inactive)
same,GI50,EKVX,> 100 µM (inactive)
same,GI50,HCC 2998,> 100 µM (inactive)
same,GI50,HCT-15,> 100 µM
same,GI50,HL-60,> 10 µM (inactive)
same,GI50,HOP-62,> 100 µM (inactive)
same,GI50,HOP-92,> 100 µM (inactive)
same,GI50,HT-29,> 100 µM (inactive)
same,GI50,Hs-578T,> 100 µM (inactive)
same,GI50,IGROV-1,> 100 µM (inactive)
same,GI50,K562,> 100 µM (inactive)
same,GI50,KM12,> 100 µM (inactive)
same,GI50,LOX IMVI,> 100 µM (inactive)
same,GI50,M14,> 100 µM (inactive)
same,GI50,MCF7,> 100 µM (inactive)
same,GI50,MDA-MB-231,> 100 µM (inactive)
same,GI50,MDA-MB-435,> 100 µM (inactive)
same,GI50,MDA-N,> 100 µM (inactive)
same,GI50,MOLT-4,> 100 µM (inactive)
same,GI50,Malme-3M,> 100 µM (inactive)
same,GI50,NCI-H23,> 100 µM (inactive)
same,GI50,NCI-H460,> 100 µM (inactive)
same,GI50,NCI-H522,> 100 µM (inactive)
same,GI50,NCI/ADR-RES,> 100 µM (inactive)
same,GI50,OVCAR-3,> 100 µM (inactive)
same,GI50,OVCAR-4,> 100 µM (inactive)
same,GI50,OVCAR-5,> 100 µM (inactive)
same,GI50,OVCAR-8,> 100 µM (inactive)
same,GI50,PC-3,> 100 µM (inactive)
same,GI50,RPMI-8226,> 100 µM (inactive)
same,GI50,RXF 393,> 100 µM (inactive)
same,GI50,SF-268,> 100 µM (inactive)
same,GI50,SF-539,> 100 µM (inactive)
same,GI50,SK-MEL-28,> 100 µM (inactive)
same,GI50,SK-MEL-2,> 100 µM (inactive)
same,GI50,SK-MEL-5,> 100 µM (inactive)
same,GI50,SN12C,> 100 µM (inactive)
same,GI50,SNB-19,> 100 µM (inactive)
same,GI50,SNB-75,> 100 µM (inactive)
same,GI50,SW-620,> 100 µM (inactive)
same,GI50,T47D,> 100 µM (inactive)
same,GI50,TK-10,> 100 µM (inactive)
same,GI50,U-251,> 100 µM (inactive)
same,GI50,UACC-257,> 100 µM (inactive)
same,GI50,UO-31,> 100 µM (inactive)
Oc1[nH]c(Nc2cc(Cl)cc(Cl)c2)nc2ncnc1-2,GI50,786-0,> 75 µM (inactive)
same,GI50,A549,> 75 µM (inactive)
same,GI50,ACHN,> 75 µM (inactive)
same,GI50,BT-549,> 75 µM (inactive)
same,GI50,CAKI-1,> 75 µM (inactive)
same,GI50,CCRF-CEM,> 75 µM (inactive)
same,GI50,COLO 205,> 75 µM (inactive)
same,GI50,DU-145,> 75 µM (inactive)
same,GI50,EKVX,> 75 µM (inactive)
same,GI50,HCC 2998,> 75 µM (inactive)
same,GI50,HCT-116,> 75 µM (inactive)
same,GI50,HCT-15,> 75 µM
same,GI50,HOP-62,> 75 µM (inactive)
same,GI50,HOP-92,> 75 µM (inactive)
same,GI50,HT-29,> 75 µM (inactive)
same,GI50,Hs-578T,17.9 µM (inactive)
same,GI50,IGROV-1,> 75 µM (inactive)
same,GI50,K562,> 75 µM (inactive)
same,GI50,KM12,> 75 µM (inactive)
same,GI50,LOX IMVI,> 75 µM (inactive)
same,GI50,M14,> 75 µM (inactive)
same,GI50,MCF7,> 75 µM (inactive)
same,GI50,MDA-MB-231,> 75 µM (inactive)
same,GI50,MDA-MB-435,> 75 µM (inactive)
same,GI50,MDA-N,> 75 µM (inactive)
same,GI50,MOLT-4,> 75 µM (inactive)
same,GI50,Malme-3M,> 75 µM (inactive)
same,GI50,NCI-H226,> 75 µM (inactive)
same,GI50,NCI-H23,> 75 µM (inactive)
same,GI50,NCI-H460,> 75 µM (inactive)
same,GI50,NCI/ADR-RES,> 75 µM (inactive)
same,GI50,OVCAR-3,> 75 µM (inactive)
same,GI50,OVCAR-4,> 75 µM (inactive)
same,GI50,OVCAR-5,> 75 µM (inactive)
same,GI50,OVCAR-8,> 75 µM (inactive)
same,GI50,PC-3,> 75 µM (inactive)
same,GI50,RPMI-8226,> 75 µM (inactive)
same,GI50,RXF 393,> 75 µM (inactive)
same,GI50,SF-268,> 75 µM (inactive)
same,GI50,SF-295,> 75 µM (inactive)
same,GI50,SF-539,> 75 µM (inactive)
same,GI50,SK-MEL-2,> 75 µM (inactive)
same,GI50,SK-MEL-5,> 75 µM (inactive)
same,GI50,SK-OV-3,> 75 µM (inactive)
same,GI50,SN12C,> 75 µM (inactive)
same,GI50,SNB-19,> 75 µM (inactive)
same,GI50,SNB-75,> 75 µM (inactive)
same,GI50,SW-620,> 75 µM (inactive)
same,GI50,T47D,> 75 µM (inactive)
same,GI50,TK-10,> 75 µM (inactive)
same,GI50,U-251,> 75 µM (inactive)
same,GI50,UACC-257,> 75 µM (inactive)
same,GI50,UACC-62,> 75 µM (inactive)
same,GI50,UO-31,> 75 µM (inactive)
